ChEMBL document CHEMBL3045983, “Ajugatakasins A and B, New Diterpenoids fromAjuga decumbens, and Feeding Stimulative Activity of Related Neoclerodane Analogs toward the Turnip Sawfly” (1997)

How the values were obtained:
Type in all cases: functional
Athalia rosae ruficornis [1] = assay: Induction of feeding in larvae of Athalia rosae ruficornis on leaves of Ajuga decumbens assessed as feeding response measured for 10 seconds relative to control; design: concentration or dose not given beside the values
Athalia rosae ruficornis [2] = assay: Induction of feeding in larvae of Athalia rosae ruficornis on leaves of Ajuga decumbens assessed as feeding response at 10 ug/64 mm'2 of filter paper measured for 10 seconds
Athalia rosae ruficornis [3] = assay: Induction of feeding in larvae of Athalia rosae ruficornis on leaves of Ajuga decumbens assessed as feeding response at 0.1 ug/64 mm'2 of filter paper measured for 10 seconds

CC[C@H](C)C(=O)O[C@H]1[C@H](O)C[C@@H]2[C@@](C)([C@@H]3C[C@H]4C=CO[C@H]4O3)[C@H](C)C[C@H](OC(C)=O)[C@@]2(COC(C)=O)[C@@]12CO2 [CLERODENDRIN D]
Activity (Athalia rosae ruficornis [1]): 0.08%
Activity (Athalia rosae ruficornis [2]): 100%
Activity (Athalia rosae ruficornis [3]): 88%

C/C=C(\C)C(=O)O[C@@H]1CC[C@]2(CO2)[C@]2(COC(C)=O)[C@@H](OC(C)=O)C[C@@H](C)[C@](C)(C[C@H](O)C3=CC(=O)OC3)[C@@H]12 [AJUGAMARIN A1]
Activity (Athalia rosae ruficornis [1]): 46.3%
Activity (Athalia rosae ruficornis [2]): 0%
Activity (Athalia rosae ruficornis [3]): 0%

CC[C@H](C)C(=O)O[C@@H](C[C@@]1(C)[C@H](C)C[C@H](OC(C)=O)[C@]2(COC(C)=O)[C@@H]1[C@H](OC(=O)[C@@H](C)CC)CC[C@]21CO1)C1=CC(=O)OC1 [AJUGATAKASIN B]
Activity (Athalia rosae ruficornis [1]): 0.4%
Activity (Athalia rosae ruficornis [2]): 0%
Activity (Athalia rosae ruficornis [3]): 0%

CCC(C)C(=O)O[C@@H]1CC[C@]2(CO2)[C@]2(COC(C)=O)[C@@H](OC(C)=O)C[C@@H](C)[C@](C)(C[C@H](O)C3=CC(=O)OC3)[C@@H]12 (stereo partly specified) [DIHYDROAJUGAMARIN]
Activity (Athalia rosae ruficornis [1]): 8.6%
Activity (Athalia rosae ruficornis [2]): 0%
Activity (Athalia rosae ruficornis [3]): 0%

C/C=C(\C)C(=O)O[C@@H](C[C@@]1(C)[C@H](C)C[C@H](OC(C)=O)[C@]2(COC(C)=O)[C@@H]1[C@H](OC(=O)[C@@H](C)CC)CC[C@]21CO1)C1=CC(=O)OC1 [AJUGAMARIN H1]
Activity (Athalia rosae ruficornis [1]): 7%
Activity (Athalia rosae ruficornis [2]): 0%
Activity (Athalia rosae ruficornis [3]): 0%

C/C=C(\C)C(=O)O[C@@H]1CC[C@]2(CO2)[C@]2(COC(C)=O)[C@@H](OC(C)=O)C[C@@H](C)[C@](C)(C[C@H](OC(=O)[C@@H](C)CC)C3=CC(=O)OC3)[C@@H]12 [AJUGAMARIN G1]
Activity (Athalia rosae ruficornis [1]): 9.3%
Activity (Athalia rosae ruficornis [2]): 0%
Activity (Athalia rosae ruficornis [3]): 0%

C/C=C(\C)C(=O)O[C@@H](C[C@@]1(C)[C@H](C)C[C@H](OC(C)=O)[C@]2(COC(C)=O)[C@@H]1[C@H](OC(=O)/C(C)=C/C)CC[C@]21CO1)C1=CC(=O)OC1 [AJUGATAKASIN A]
Activity (Athalia rosae ruficornis [1]): 28.4%
Activity (Athalia rosae ruficornis [2]): 0%
Activity (Athalia rosae ruficornis [3]): 0%
